Experimental data taken from patent US20130059929A1, “MICROBIOLOGICALLY STABLE, EASILY APPLICABLE PREPARATIONS” (Beiersdorf AG, priority 2010, published 2013).

Test system: Staphylococcus epidermidis
Experiment: biofilm assay (biofilm inhibition and biofilm dissolution, color reaction on microtiter plate scale, FIG. 1)
Format: cell-based
Conditions: based on the positive control (PC1); for biofilm-dissolving effect: timepoint 24 h; for biofilm inhibition (biofilm-inhibiting effectiveness): timepoint 0 h
Method: In the course of the biofilm assay, the biofilm inhibition at timepoint 0 h and also the biofilm-dissolving effect at timepoint 24 h is investigated using a color reaction on a microtiter plate scale.
The test shown in FIG. 1 was carried out with Staphylococcus epidermidis, a germ which causes little harm for people with a normal immunological defense. Staphylococcus epidermidis (syn. Staphylococcus albus, Micrococcus epidermidis, Staphylococcus saprophyticus) is a Gram-positive, plasmacoagulase-negative, saprophagic bacterium which colonizes the human skin and mucosa. Furthermore, it can be found on foods and also colonizes on polymeric surfaces (e.g. packagings). However, in a hospital, in the case of immunocompromised people, it can, in cases of lack of cleanliness, be a cause of serious diseases.

Compound: CC(C)(C)CC(C)(C)c1ccc(OCCOCC[N+](C)(C)Cc2ccccc2)cc1 [benzethonium chloride, benzyldimethyl (4-{2-[4-(1,1,3,3-tetramethylbutyl)phenoxy]ethoxy}ethyl)ammonium chloride]
- biofilm-dissolving effect: very good biofilm-dissolving effect

Compound: CCOC(=O)c1ccc(O)cc1 [ethylparaben]
- effectiveness in the biofilm assay (inhibition / dissolution not distinguished): Neither ethylparaben nor methylparaben exhibited effectiveness

Compound: CCCCCCCCCCCC(=O)N[C@@H](CCCN=C(N)N)C(=O)OCC.Cl [lauroyl ethyl arginate, ethyl lauroyl arginate HCl]
- biofilm inhibition (biofilm-inhibiting effectiveness): very good biofilm-inhibiting effectiveness
- biofilm-dissolving effect: very good biofilm-dissolving effect

Compound: Cn1sccc1=O [methylisothiazolinone, 2-methyl-2H-isothiazol-3-one]
- biofilm inhibition (biofilm-inhibiting effectiveness): very good biofilm-inhibiting effectiveness
- biofilm-dissolving effect: slight biofilm dissolution

Compound: COC(=O)c1ccc(O)cc1 [methylparaben]
- effectiveness in the biofilm assay (inhibition / dissolution not distinguished): Neither ethylparaben nor methylparaben exhibited effectiveness

Compound: Cc1cc(CC(C)CC(C)(C)C)n(O)c(=O)c1 (stereo not drawn) [piroctone olamine, 1-hydroxy-4-methyl-6-(2,4,4-trimethylpentyl)-2(1H)-pyridone]
- biofilm inhibition (biofilm-inhibiting effectiveness): very good biofilm-inhibiting effectiveness
- biofilm-dissolving effect: slight biofilm dissolution
